Data taken from article PMC3082566, “PTB Domain-Directed Substrate Targeting in a Tyrosine Kinase from the Unicellular Choanoflagellate Monosiga brevicollis” (PLoS ONE, 2011).

How the values were obtained:
HMTK1 [1] = test: Phosphorylation of peptide substrates by purified HMTK1 (phosphocellulose paper assay); type: biochemical, Monosiga brevicollis; conditions: 6 minutes at 30°C; for HMTK1 activity toward peptide (comparison of c-Src and Monosiga-derived peptides): 750 µM peptide, 400 nM HMTK1, pH 7.4, phosphocellulose paper assay, Fig. 2A
Description: (§1) HMTK1 was expressed in Spodoptera frugiperda (Sf9) insect cells using the Bac-to-Bac system (Invitrogen). Sf9 cells (800 ml) were infected with HMTK1 baculovirus and harvested after three days. Cells were lysed in a French pressure cell, and His-tagged HMTK1 was purified using nickel-nitrilotriacetic acid resin (Qiagen), as described previously. Peak fractions were pooled and concentrated in an Amicon Ultrafiltration device (molecular weight cutoff: 30,000 daltons). The purified protein was stored in 40% glycerol at −20°C. The isolated PTB domain of HMTK1 was produced as a fusion with glutathione S-transferase (GST). E. coli cells (1 liter) expressing the GST fusion protein were lysed in a French pressure cell, and the GST-PTB protein was purified by chromatography on a glutathione-agarose column (Molecular Probes).
Kinase assays were performed by two methods. Initial activity measurements were performed by the phosphocellulose paper binding assay. Reaction mixtures contained 20 mM Tris-HCl (pH 7.4), 10 mM MgCl2, 0.2 mM ATP, [γ-^32P]-ATP (30–50 cpm/pmol), and varying amounts of HMTK1 and peptide substrates. All peptide substrates were purified by high pressure liquid chromatography and characterized by mass spectrometry prior to use. […] Initial rate kinetic measurements on the PTB ligand-containing substrate ([…]pYATLG) and on the Phe-containing PTB control ([…]) were carried out using a continuous spectrophotometric assay. Reactions were performed at 30°C in a final volume of 50 µl. The reactions contained 100 mM Tris pH 7.4, 10 mM MgCl2, 2 mM ATP, 1.5 mM phosphoenolpyruvate, 90 units/ml of pyruvate kinase, 109 units/ml of lactate dehydrogenase, and 1.2 mg/ml of NADH. For determination of Km values, the enzyme concentrations were 0.3–0.5 µM and the peptide concentrations ranged from 0–700 µM. Kinetic constants were determined by nonlinear fitting to the [substrate] vs. velocity curves using GraphPad Prism 4.
Figure 1 Monosiga brevicollis HMTK1 kinase. (A) Domain arrangement of HMTK1. (B) Amino acid sequence of the PTB-kinase HMTK1 construct used in this study. The HMD motif in the catalytic loop is underlined. (C) Tyrosine kinase activity of HMTK1. […] Reactions proceeded for 6 minutes at 30°C, and enzyme activity was measured using the phosphocellulose paper assay.
Figure 2 Additional HMTK1 peptide phosphorylation assays. Reactions proceeded for 6 minutes at 30°C, and enzyme activity was measured using the phosphocellulose paper assay. […] (B) Phosphorylation of SH2-binding substrates containing various spacer lengths between the pY residue and the phosphorylatable tyrosine. The peptides are shown schematically, with the phosphorylation site in blue, the SH2-binding ligand (pYEEI) in red, and the number of intervening amino acids in a box. The sequences of the peptides are: […]pYEEIG (spacer = 11), […]pYEEIG (spacer = 7), and […]pYEEIG (spacer = 3); SH2 control substrate, […] (spacer = 11); substrate peptide, […]. Reactions contained 70 µM peptides. Error bars show standard deviation.

MbSrc1 = conditions: ref [13], [14]; cited from earlier work
MbSrc4 = conditions: ref [13], [14]; cited from earlier work
HMTK1 [2] = test: Co-expression of HMTK1 with mammalian receptor tyrosine kinases: binding or phosphorylation; type: cell-based, Monosiga brevicollis; conditions: data not shown
[3] = biological target: PTB ligand-containing substrate (…pYATLG)
Sequence of PTB ligand-containing substrate (…pYATLG) (peptide, as listed by the source): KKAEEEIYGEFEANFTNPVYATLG

[4] = biological target: Phe-containing PTB control substrate (…)
[5] = biological target: SH2 binding substrate, spacer = 11 (…pYEEIG)
Sequence of SH2 binding substrate, spacer = 11 (…pYEEIG) (peptide, as listed by the source): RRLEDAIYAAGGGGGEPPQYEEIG

HMTK1 [6] = test: Steady-state kinetics, continuous spectrophotometric assay; type: biochemical, Monosiga brevicollis; conditions: HMTK1 0.3–0.5 µM; peptide 0–700 µM; 100 mM Tris pH 7.4, 10 mM MgCl2, 2 mM ATP; 30°C; nonlinear fitting
Description: Kinase assays were performed by two methods. Initial activity measurements were performed by the phosphocellulose paper binding assay. Reaction mixtures contained 20 mM Tris-HCl (pH 7.4), 10 mM MgCl2, 0.2 mM ATP, [γ-^32P]-ATP (30–50 cpm/pmol), and varying amounts of HMTK1 and peptide substrates. All peptide substrates were purified by high pressure liquid chromatography and characterized by mass spectrometry prior to use. The following substrates were used: c-Src peptide, […]; MbSTAT peptide, […]; RTKB2 peptide 1, […]; RTKB2 peptide 2, […]; SH2 binding substrates (varying linker lengths), […]pYEEIG, […]pYEEIG, and […]pYEEIG; SH2 control substrate, […]. Initial rate kinetic measurements on the PTB ligand-containing substrate ([…]pYATLG) and on the Phe-containing PTB control ([…]) were carried out using a continuous spectrophotometric assay. Reactions were performed at 30°C in a final volume of 50 µl. The reactions contained 100 mM Tris pH 7.4, 10 mM MgCl2, 2 mM ATP, 1.5 mM phosphoenolpyruvate, 90 units/ml of pyruvate kinase, 109 units/ml of lactate dehydrogenase, and 1.2 mg/ml of NADH. For determination of Km values, the enzyme concentrations were 0.3–0.5 µM and the peptide concentrations ranged from 0–700 µM. Kinetic constants were determined by nonlinear fitting to the [substrate] vs. velocity curves using GraphPad Prism 4.

HMTK1 [7] = test: Binding of purified HMTK1 to immobilized PTB ligand peptides; design: species or system Monosiga brevicollis; conditions: 6.6 µg HMTK1; peptide on Affi-Gel resin; 1 hour at 4°C; anti-His6 Western; Fig. 5A
Description: The PTB ligand-containing peptide, Phe-containing PTB control, and pYEEI peptide (EPQpYEEIG) were linked to Affi-Gel 15 resin (Bio-Rad) following the manufacturer's protocols. Purified HMTK1 or the isolated PTB domain were incubated for 1 hour at 4°C with the immobilized peptides. After binding, the beads were washed 4 times with 1 ml of binding buffer (50 mM Tris-HCl pH 7.5, 5 mM EDTA, 100 mM NaCl, 0.1% Triton X-100, 1 mM DTT, 0.5 mM Na3VO4). Bound proteins were eluted with SDS-PAGE loading buffer, separated by 10% SDS-PAGE, and visualized either by Coomassie blue staining or by Western blotting.
Figure 5 Substrate targeting by PTB ligand. (A) Purified HMTK1 (6.6 µg) was incubated with PTB ligand-containing substrate ([…]pYATLG), PTB control substrate ([…]), pYEEI peptide, or control resin in final volumes of 60 µl. After washing, bound proteins were eluted with SDS-PAGE sample buffer and analyzed by Western blotting with anti-His6-tag antibody. (B) The kinase activity of HMTK1 (300 nM) toward the PTB ligand-containing substrate or PTB control substrate (shown schematically) was determined using the phosphocellulose paper assay. The reaction contained 20 mM Tris-HCl (pH 7.4), 10 mM MgCl2, 0.2 mM ATP, 30 µM peptide, and [γ-^32P]-ATP. […] Incorporation of ^32P into the peptides was determined by scintillation counting.

[8] = test system: FLAG-tagged wild-type HMTK1; test: Pulldown of FLAG-tagged wild-type HMTK1 from SYF cell lysates with immobilized peptides; type: binding, Monosiga brevicollis; conditions: immobilized peptide; anti-FLAG Western; Fig. 3C
Description: For expression in insect cells, HMTK1 DNA (encoding residues 341–761) was cloned into the EcoRI site of pFastbac-Hta (Invitrogen). FLAG-tagged HMTK1 was expressed in mammalian cells by subcloning into the BglII and BamHI sites of p3XFLAG-CMV (Sigma). The ΔPTB version of this construct was prepared by PCR amplification and subsequent recloning into the BamHI and EcoRI sites of p3XFLAG-CMV. Site-directed mutagenesis of FLAG-HMTK1 was carried out using the QuikChange kit (Stratagene). To express the isolated third PTB domain (residues 341–474) in bacterial cells, this PCR fragment was cloned into the EcoRI site of plasmid pGEX-4T-1 (GE Healthcare). All constructs were confirmed by DNA sequencing.
The PTB ligand-containing peptide, Phe-containing PTB control, and pYEEI peptide (EPQpYEEIG) were linked to Affi-Gel 15 resin (Bio-Rad) following the manufacturer's protocols. Purified HMTK1 or the isolated PTB domain were incubated for 1 hour at 4°C with the immobilized peptides. […]
Figure 3 Binding reactions with pYEEI-containing peptide. […] Bound proteins were eluted with SDS-PAGE sample buffer and analyzed by gel electrophoresis with Coomassie blue staining. […] After washing, bound proteins were eluted with SDS-PAGE sample buffer and analyzed by Western blotting with anti-GST antibody. […] After washing, bound proteins were analyzed by anti-FLAG Western blotting. […]

HMTK1 [9] = test: Phosphorylation of SH2-binding substrates with varying spacer lengths by HMTK1 (phosphocellulose paper assay); type: biochemical, Monosiga brevicollis; conditions: 70 µM peptides; spacer of 11 residues; 6 minutes at 30°C; Fig. 2B
Description: as §1
Kinase assays were performed by two methods. Initial activity measurements were performed by the phosphocellulose paper binding assay. […] Kinetic constants were determined by nonlinear fitting to the [substrate] vs. velocity curves using GraphPad Prism 4.
Figure 2 Additional HMTK1 peptide phosphorylation assays. Reactions proceeded for 6 minutes at 30°C, and enzyme activity was measured using the phosphocellulose paper assay. […]

With “AEEEIYGEFEAKKKG [c-Src peptide, acidophilic Src peptide, reference compound]” the “HMTK1 activity toward peptide (comparison of c-Src and Monosiga-derived peptides)” value (from here on “HMTK1 activity toward peptide”) (HMTK1 [1]) was “roughly equivalent activity” and the “phosphorylation of peptide by HMTK1” value (HMTK1 [1]; 32P-labeled ATP, 500 µM peptide, 20 mM Tris-HCl pH 7.4, 10 mM MgCl2, 0.2 mM ATP, Fig. 1C) was “phosphorylated this peptide efficiently”.

In the case of AEEVYEAIADKKK [RTKB2 peptide 2], the “MbSrc1 activity compared with the c-Src peptide” value (MbSrc1) is listed as “substantially higher activities”, the “MbSrc4 activity compared with the c-Src peptide” value (MbSrc4) is listed as “substantially higher activities” and the “HMTK1 activity toward peptide” value (HMTK1 [1]) is listed as “highest activity”.

In the case of “ErbB2: mammalian receptor tyrosine kinase”, the “binding or phosphorylation by co-expressed HMTK1” value (HMTK1 [2]) is reported as “failed to bind or phosphorylate”.

“His-tagged HMTK1 PTB-kinase construct (residues 341-761) (enzyme)” gave a Km of peptide phosphorylation by HMTK1 (continuous spectrophotometric assay, 30°C) [3] of 33 µM, a Km of peptide phosphorylation by HMTK1 (continuous spectrophotometric assay, 30°C) [4] of 450 µM and an other [5] of 5 fold.

For “IGF1R: mammalian receptor tyrosine kinase”, the “binding or phosphorylation by co-expressed HMTK1” value (HMTK1 [2]) was “failed to bind or phosphorylate”.

For “KKAEEEIYGEFEANFTNPVFATLG [Phe peptide, control peptide in which the pTyr residue was replaced with Phe]”, the Km (HMTK1 [6]) was 450 µM and the “binding to purified HMTK1” value (HMTK1 [7]) was “undetectable”.

With “KKKASGYVMADIA [MbSTAT peptide, from a putative M. brevicollis STAT]” the “HMTK1 activity toward peptide” value (HMTK1 [1]) was “no significant activity”.

With “LRRApSLG [phospho-Kemptide, immobilized phosphoserine-containing peptide]” the “binding to wild-type HMTK1 (SYF lysate)” value [8] was “failed to bind”.

With “RRLEDAIYAAGGGGGEPPQpYEEIG [SH2-binding substrate]” the “phosphorylation relative to control sequence lacking phosphotyrosine” value (HMTK1 [9]) was 5 fold and the “phosphorylation relative to shortened peptide containing only the substrate motif” value (HMTK1 [9]) was 5 fold.

In the case of SEEVYGAVVDKKK [RTKB2 peptide 1], the “MbSrc1 activity compared with the c-Src peptide” value (MbSrc1) is given as “substantially higher activities”, the “MbSrc4 activity compared with the c-Src peptide” value (MbSrc4) is given as “substantially higher activities” and the “HMTK1 activity toward peptide” value (HMTK1 [1]) is given as “roughly equivalent activity”.
